Laboratory results as given in ChEMBL document CHEMBL4831557, “Parthenolide Derivatives as PKM2 Activators Showing Potential in Colorectal Cancer” (J Med Chem, 2021).
Activity calls are given as the source filed them. The rule behind the calls is not given here.

How the values were obtained:
Pyruvate kinase PKM [1] = biological target: T1, Pyruvate kinase PKM (Homo sapiens, UniProt P14618); assay: Inhibition of PKM2/STAT3 in human HT-29 cells assessed as reduction in bcl-xl protein expression at 0.45 to 1.8 uM incubated for 48 hrs by Western blot analysis; format: cell-based; conditions: dose 0.45-1.8 µM
T1 sequence (P14618 2-531 limits assumed): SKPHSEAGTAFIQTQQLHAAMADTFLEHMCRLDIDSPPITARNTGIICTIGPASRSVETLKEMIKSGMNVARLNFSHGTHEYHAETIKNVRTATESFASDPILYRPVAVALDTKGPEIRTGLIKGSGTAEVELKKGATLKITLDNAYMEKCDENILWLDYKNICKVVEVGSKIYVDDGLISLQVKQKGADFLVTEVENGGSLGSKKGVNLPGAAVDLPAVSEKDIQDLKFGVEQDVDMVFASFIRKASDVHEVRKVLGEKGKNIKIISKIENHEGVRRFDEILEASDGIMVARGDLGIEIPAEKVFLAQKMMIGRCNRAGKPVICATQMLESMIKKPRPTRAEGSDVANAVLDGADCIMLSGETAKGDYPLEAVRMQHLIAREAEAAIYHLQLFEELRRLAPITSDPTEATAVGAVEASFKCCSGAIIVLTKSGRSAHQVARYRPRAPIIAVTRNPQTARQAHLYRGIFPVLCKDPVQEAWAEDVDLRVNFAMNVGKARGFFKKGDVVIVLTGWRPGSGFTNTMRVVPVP

Pyruvate kinase PKM [2] = biological target: Pyruvate kinase PKM (Homo sapiens, UniProt P14618, C424A); assay: Activation of human PKM2-C424A expressed in Escherichia coli BL21 (DE3)
Pyruvate kinase PKM (Homo sapiens, UniProt P14618, C424A), sequence (P14618 2-531 C424A limits assumed): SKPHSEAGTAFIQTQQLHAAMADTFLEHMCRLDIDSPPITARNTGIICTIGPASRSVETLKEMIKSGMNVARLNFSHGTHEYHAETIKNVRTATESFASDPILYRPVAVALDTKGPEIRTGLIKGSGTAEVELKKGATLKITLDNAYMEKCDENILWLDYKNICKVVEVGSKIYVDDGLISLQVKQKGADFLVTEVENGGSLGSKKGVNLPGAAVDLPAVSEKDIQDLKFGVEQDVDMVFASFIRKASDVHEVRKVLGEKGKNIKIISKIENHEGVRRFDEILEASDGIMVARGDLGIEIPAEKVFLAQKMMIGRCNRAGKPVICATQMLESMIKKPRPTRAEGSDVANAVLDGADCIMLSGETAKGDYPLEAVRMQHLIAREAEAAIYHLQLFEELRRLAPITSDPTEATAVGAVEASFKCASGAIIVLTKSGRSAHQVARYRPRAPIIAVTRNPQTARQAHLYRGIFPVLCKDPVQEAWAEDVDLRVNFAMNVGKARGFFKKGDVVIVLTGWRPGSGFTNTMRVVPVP

HT-29 [3] = assay: Antimigratory activity against human HT-29 cells; format: functional, cell-based
HCT-116 = assay: Cytotoxicity against human HCT-116 cells assessed as reduction in cell viability incubated for 48 hrs by MTT assay; format: functional, cell-based; conditions: HCT-116, 48 h
Pyruvate kinase PKM [4] = biological target: T1, Pyruvate kinase PKM; assay: Activation of human PKM2-C424A expressed in Escherichia coli BL21 (DE3) assessed as increase in PKM2-C424A tetramer formation by chemical cross-linking assay
SW480 [5] = assay: Antimigratory activity against human SW480 cells; format: functional, cell-based
HT-29 [6] = assay: Inhibition of colony formation in human HT-29 cells incubated for 14 days by crystal violet staining based analysis; format: functional, cell-based; conditions: dose 0.15-0.3 µM, time 14.0 day
HT-29 [7] = assay: Induction of apoptosis in human HT-29 cells assessed as increase in cleaved PARP expression at 0.45 to 1.8 uM after 48 hrs by Western blotting analysis; format: functional, cell-based; conditions: dose 0.45-1.8 µM
HT-29 [8] = assay: Inhibition of epithelial-mesenchymal transition in human HT-29 cells assessed as change in E-cadherin expression; format: functional, cell-based
Pyruvate kinase PKM [9] = biological target: T1, Pyruvate kinase PKM; assay: Inhibition of PKM2/STAT3 in human HT-29 cells assessed as decrease in total STAT3 level at 0.45 to 1.8 uM after 48 hrs by Western blot analysis; format: cell-based; conditions: dose 0.45-1.8 µM
Pyruvate kinase PKM [10] = biological target: T1, Pyruvate kinase PKM; assay: Activation of PKM2 in human HT-29 cells assessed as decrease in extracellular acidification rate; format: cell-based; conditions: filed as activator
Pyruvate kinase PKM [11] = biological target: T1, Pyruvate kinase PKM; assay: Inhibition of PKM2/STAT3 in human HT-29 cells assessed as reduction in C-myc protein expression at 0.45 to 1.8 uM incubated for 48 hrs by Western blot analysis; format: cell-based; conditions: dose 0.45-1.8 µM
SW480 [12] = assay: Induction of apoptosis in human SW480 cells after 48 hrs by Annexin V-PE and 7-AAD staining based flow cytometric analysis; format: functional, cell-based; conditions: dose 0.2-0.8 µM

inhibition (Pyruvate kinase PKM [1]): Active
AC50 (Pyruvate kinase PKM [2]): 100 nM
Activity (Pyruvate kinase PKM [4]): inactive
inhibition (Pyruvate kinase PKM [9]): Active
Activity (Pyruvate kinase PKM [10]): Active
inhibition (Pyruvate kinase PKM [11]): Active
SMILES: C=C1C(=O)O[C@H]2[C@H]1CC/C(COC(=O)c1ccc3nccc(Br)c3c1)=C/CC[C@@]1(C)O[C@@H]21
Activity (HT-29 [3]): Active
IC50 (HCT-116): 1000 nM
Activity (SW480 [5]): Active
inhibition (HT-29 [6]): Dose-Dependent Effect
Activity (HT-29 [7]): Active
inhibition (HT-29 [8]): inactive
Activity (SW480 [12]): Dose-Dependent Effect
